From ChEMBL document CHEMBL2062363, “Ligand-based design, in silico ADME-Tox filtering, synthesis and biological evaluation to discover new soluble 1,4-DHP-based CFTR activators” (Eur J Med Chem, 2012) come the findings set out here.

System in the first data set: not listed separately
In words: Induction of nitric oxide release in phosphate buffer at pH 7.4 at 10^-4 M after 1 hr by Griess reaction presence of L-cysteine. Conditions: pH 7.4, 1 h, 100 µM. Type of data set: physicochemical.
For `CC1=C(C(=O)OCCCO[N+](=O)[O-])C(c2cccc([N+](=O)[O-])c2)C([N+](=O)[O-])=C(C)N1` (racemic), the Activity was under 0.5%.
Same read-out and setting: to `COC(=O)C1=C(C)NC(C)=C(C(=O)OCCCO[N+](=O)[O-])C1c1cccc([N+](=O)[O-])c1` (stereo unspecified) belongs under 0.5%.

System in a further data set: not listed separately
Description: Potentiation of forskolin-induced CFTR deltaF508 mutant expressed in FRT cells co-expressing halide-sensitive YFP-H148Q/I152L by fluorescence quenching assay. Type of data set: cell-based, Homo sapiens.
Settings: not given
Consider `CC1=C(C(=O)OCCCO[N+](=O)[O-])C(c2cccc([N+](=O)[O-])c2)C([N+](=O)[O-])=C(C)N1` (racemic), for which the “pEC50 for potentiation of CFTR deltaF508 (activation potency)” value (“pEC50 for potentiation of CFTR deltaF508” for short) worked out at 5.07.
On the same count and under the same terms, with `COC(=O)C1=C(C)NC(C)=C(C(=O)OCCCO[N+](=O)[O-])C1c1cccc([N+](=O)[O-])c1` (stereo unspecified) the figure was 5.88; with `C=CCOC(=O)C1=C(C)NC(C)=C(C(=O)OCC=C)C1/C=C/c1ccccc1OC`, 6.49.
Still for that read-out and setting: with `CCN(CC)c1ccc(C2C(C(=O)OC)=C(C)NC(C)=C2C(=O)OC)cc1` the figure was 5.92; with `CCOC(=O)C1=C(C)NC(C)=C(C(=O)OCC)C1c1ccc2c(c1)OCO2`, 5.77; with `COC(=O)C1=C(C)NC(C)=C(C(=O)OC)C1c1ccc(C(C)C)cc1`, 6.18.
Still for that read-out and setting: with `COC(=O)C1=C(C)NC(C)=C(C(=O)OCCCBr)C1c1cccc([N+](=O)[O-])c1` (stereo unspecified) the figure was 6.06; with `CC1=C(C(=O)OC(C)C)C(c2ccc(F)cc2)C(C(=O)OC(C)C)=C(C)N1`, 6.52; with `COC(=O)C1=C(C)N=C(C)/C(=C(/O)OC)C1/C=C/c1ccccc1` (stereo unspecified), 5.48.
For `CC1=C(C(=O)OC(C)C)C(c2ccc(C)cc2)C(C(=O)OC(C)C)=C(C)N1`, the “pEC50 for potentiation of CFTR deltaF508” value stood at 6.27.
The same measure, in the same setting: with `CCOC(=O)C1=C(C)NC(C)=C(C(=O)OC)C1c1ccc(Cl)c(Cl)c1` (stereo unspecified) the figure was 6.89.
On the same count and under the same terms, to `CCOC(=O)C1=C(C)NC(C)=C(C(=O)OCC)C1c1cc(Cl)cc(Cl)c1OC` belongs 6.51.
The same measure, in the same setting: with `C=CCOC(=O)C1=C(C)NC(C)=C(C(=O)OCC=C)C1c1ccc(Cl)c(Cl)c1` the figure was 6.21.
Turning to `COC(=O)C1=C(C)NC(C)=C(C(=O)OC)C1c1ccccc1Cl`, the “pEC50 for potentiation of CFTR deltaF508” value amounted to 6.34.
On the same count and under the same terms, to `C=CCOC(=O)C1=C(C)NC(C)=C(C(=O)OCC=C)C1c1ccccc1Cl` belongs 6.74.
As to `CCOC(=O)C1=C(C)NC(C)=C(C(=O)OCC)C1c1ccc([N+](=O)[O-])cc1`, the “pEC50 for potentiation of CFTR deltaF508” value is given as 5.71.
Regarding `COC(=O)C1=C(C)N(C)C(C)=C(C(=O)OC)C1c1ccc(Cl)c(Cl)c1`, the “pEC50 for potentiation of CFTR deltaF508” value is given as 4.89.
Still for that read-out and setting: with `COC(=O)C1=C(C)N(C)C(C)=C(C(=O)OC)C1c1ccccc1Cl` the figure was 5.44.
Still for that read-out and setting: with `COCCOC(=O)C1=C(C)NC(C)=C(C(=O)OCCOC)C1c1cccc([N+](=O)[O-])c1` the figure was 5.93.
Still for that read-out and setting: to `COC(=O)C1=C(C)NC(C)=C(C(=O)OC)C1c1ccc(Cl)cc1Cl` belongs 6.72; to `COC(=O)C1=C(C)NC(C)=C(C(=O)OC)C1c1ccc2c(c1)OCO2`, 5.71; to `CC1=C(C(=O)OC(C)C)C(c2ccc(Cl)cc2)C(C(=O)OC(C)C)=C(C)N1`, 6.14.
`COC(=O)C1=C(C)NC(C)=C(C(=O)OC)C1c1ccc(C(C)(C)C)cc1`: the “pEC50 for potentiation of CFTR deltaF508” value came to 5.52.

Another data set deals with L-type voltage-dependent Ca2+ channel (Homo sapiens, UniProt O60840+Q01668+Q13698+Q13936). Description: Inhibition of L-type voltage-dependent Ca2+ channel at 1 uM.
Settings: not given
Take `C=CCOC(=O)C1=C(C)NC(C)=C(C(=O)OCC=C)C1/C=C/c1ccccc1OC`: the inhibition at 1 µM turned out to be 18%.
On the same count and under the same terms, to `CCN(CC)c1ccc(C2C(C(=O)OC)=C(C)NC(C)=C2C(=O)OC)cc1` belongs 7.1%.
Still for that read-out and setting: to `CCOC(=O)C1=C(C)NC(C)=C(C(=O)OCC)C1c1ccc2c(c1)OCO2` belongs 38.2%; to `COC(=O)C1=C(C)NC(C)=C(C(=O)OC)C1c1ccc(C(C)C)cc1`, 54.9%; to `COC(=O)C1=C(C)NC(C)=C(C(=O)OCCCBr)C1c1cccc([N+](=O)[O-])c1` (stereo unspecified), 100%.
Still for that read-out and setting: to `CC1=C(C(=O)OC(C)C)C(c2ccc(F)cc2)C(C(=O)OC(C)C)=C(C)N1` belongs 96.8%; to `COC(=O)C1=C(C)N=C(C)/C(=C(/O)OC)C1/C=C/c1ccccc1` (stereo unspecified), 18.8%; to `CC1=C(C(=O)OC(C)C)C(c2ccc(C)cc2)C(C(=O)OC(C)C)=C(C)N1`, 47%.
In turn, `CCOC(=O)C1=C(C)NC(C)=C(C(=O)OC)C1c1ccc(Cl)c(Cl)c1` (stereo unspecified) came in with an inhibition at 1 µM of 100%.
On the same count and under the same terms, to `CCOC(=O)C1=C(C)NC(C)=C(C(=O)OCC)C1c1cc(Cl)cc(Cl)c1OC` belongs 100%; to `C=CCOC(=O)C1=C(C)NC(C)=C(C(=O)OCC=C)C1c1ccc(Cl)c(Cl)c1`, 87.2%.
On the same count and under the same terms, with `COC(=O)C1=C(C)NC(C)=C(C(=O)OC)C1c1ccccc1Cl` the figure was 100%.
On the same count and under the same terms, to `C=CCOC(=O)C1=C(C)NC(C)=C(C(=O)OCC=C)C1c1ccccc1Cl` belongs 100%; to `CCOC(=O)C1=C(C)NC(C)=C(C(=O)OCC)C1c1ccc([N+](=O)[O-])cc1`, 47.4%.
Regarding `COC(=O)C1=C(C)N(C)C(C)=C(C(=O)OC)C1c1ccc(Cl)c(Cl)c1`, the inhibition at 1 µM came out at 45.6%.
On the same count and under the same terms, with `COC(=O)C1=C(C)N(C)C(C)=C(C(=O)OC)C1c1ccccc1Cl` the figure was 50.6%; with `COCCOC(=O)C1=C(C)NC(C)=C(C(=O)OCCOC)C1c1cccc([N+](=O)[O-])c1`, 100%; with `COC(=O)C1=C(C)NC(C)=C(C(=O)OC)C1c1ccc(Cl)cc1Cl`, 100%.
`COC(=O)C1=C(C)NC(C)=C(C(=O)OC)C1c1ccc2c(c1)OCO2` returned an inhibition at 1 µM of 37.2%.
The molecule `CC1=C(C(=O)OC(C)C)C(c2ccc(Cl)cc2)C(C(=O)OC(C)C)=C(C)N1` returned an inhibition at 1 µM of 50.5%.
On the same count and under the same terms, with `COC(=O)C1=C(C)NC(C)=C(C(=O)OC)C1c1ccc(C(C)(C)C)cc1` the figure was 20.9%.
